Values of other authors in patent US6322816A, “Fast-acting analgesic” (priority 1997, dated 2001).
Counter-ions that a name gives are not always drawn.

Columns and labels:
[1] = in words, background
[2] = versus free acid; in words, background
[3] = in words, DE-C 36 39 038

CC(C)Cc1ccc(C(C)C(=O)O)cc1 (racemic) [ibuprofen, 2-(4-isobutylphenyl)propionic acid]
solubility [1]: low solubility

CC(C)Cc1ccc(C(C)C(=O)O)cc1 (racemic) [lysine salt]
maximum blood level Cmax compared with the free acid [2]: distinctly faster and higher maximum blood level Cmax

CC(C)Cc1ccc(C(C)C(=O)O)cc1 (racemic) [sodium ibuprofenate]
hygroscopicity [1]: hygroscopic

CC(C)Cc1ccc([C@H](C)C(=O)O)cc1 [S(+) isomer, S(+)-ibuprofen]
onset of action [3]: faster onset of action
